According to ChEMBL document CHEMBL1201861, “Genomics of Drug Sensitity in Cancer screening data, Wellcome Trust Sanger Institute”:

Key:
Assay in all cases: cells
Format in all cases: functional, cell-based
Settings in all cases: Homo sapiens
SNU-5 = system: SNU-5;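 note: cell viability readout used to measure growth inhibition in human NCI-SNU-5 cells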
Description: SANGER: Inhibition of human NCI-SNU-5 cell growth in a cell viability assay.

HL-60 = system: HL-60;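 note: growth inhibition of human HL-60 cells, read out with a cell viability assay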
Description: SANGER: Inhibition of human HL-60 cell growth in a cell viability assay.

MN-60 = system: MN-60;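 note: growth inhibition of the MN-60 cell line, determined with a cell viability assay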
Description: SANGER: Inhibition of human MN-60 cell growth in a cell viability assay.

NCI-H1299 = system: NCI-H1299;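 note: growth inhibition of human NCI-H1299 cells, read out by a cell viability assay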
Description: SANGER: Inhibition of human NCI-H1299 cell growth in a cell viability assay.

RXF 393 = system: RXF 393;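 note: growth inhibition of human RXF 393 cells, read out with a cell viability assay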
Description: SANGER: Inhibition of human RXF393 cell growth in a cell viability assay.

NCI-H446 = system: NCI-H446;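 note: growth inhibition of NCI-H446 cells determined by a cell viability assay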
Description: SANGER: Inhibition of human NCI-H446 cell growth in a cell viability assay.

SJSA-1 = system: SJSA-1;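 note: growth inhibition of human SJSA-1 cells, read out through a cell viability measurement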
Description: SANGER: Inhibition of human SJSA-1 cell growth in a cell viability assay.

COLO-320-HSR = system: COLO-320-HSR;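 note: growth inhibition of COLO-320-HSR cells, determined with a cell viability assay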
Description: SANGER: Inhibition of human COLO-320-HSR cell growth in a cell viability assay.

D-263MG = system: D-263MG
Description: SANGER: Inhibition of human D-263MG cell growth in a cell viability assay.

ALL-PO = system: ALL-PO;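 note: growth inhibition of ALL-PO cells, read out by a cell viability assay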
Description: SANGER: Inhibition of human ALL-PO cell growth in a cell viability assay.

IST-MEL1 = system: IST-MEL1;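 note: growth inhibition of the cell line, read out with a cell viability assay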
Description: SANGER: Inhibition of human IST-MEL1 cell growth in a cell viability assay.

UACC-257 = system: UACC-257
Description: SANGER: Inhibition of human UACC-257 cell growth in a cell viability assay.

SF-539 = system: SF-539;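 note: Read-out is a cell viability assay, with IC50 reflecting inhibition of cell growth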
Description: SANGER: Inhibition of human SF539 cell growth in a cell viability assay.

ML-2 = system: ML-2;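 note: growth inhibition of ML-2 cells, measured with a cell viability readout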
Description: SANGER: Inhibition of human ML-2 cell growth in a cell viability assay.

AM-38 = system: AM-38;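 note: growth inhibition of AM-38 cells of human origin, read out by a cell viability assay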
Description: SANGER: Inhibition of human AM-38 cell growth in a cell viability assay.

NCI-H322M = system: NCI-H322M;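 note: cell viability assay measuring inhibition of growth of human NCI-H322M cells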
Description: SANGER: Inhibition of human NCI-H322M cell growth in a cell viability assay.

KM-H2 = system: KM-H2;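 note: growth inhibition of KM-H2 cells, read out by a cell viability assay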
Description: SANGER: Inhibition of human KM-H2 cell growth in a cell viability assay.

HT = system: HT
Description: SANGER: Inhibition of human HT cell growth in a cell viability assay.

DU-4475 = system: DU-4475
Description: SANGER: Inhibition of human DU-4475 cell growth in a cell viability assay.

ES4 = system: ES4;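 note: growth inhibition of human ES4 cells, read out by a cell viability assay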
Description: SANGER: Inhibition of human ES4 cell growth in a cell viability assay.

MMAC-SF = system: MMAC-SF;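 note: growth inhibition of human MMAC-SF cells, read out with a cell viability assay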
Description: SANGER: Inhibition of human MMAC-SF cell growth in a cell viability assay.

GT3TKB = system: GT3TKB;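 note: growth inhibition of the cell line, read out with a cell viability assay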
Description: SANGER: Inhibition of human GT3TKB cell growth in a cell viability assay.

KNS-42 = system: KNS-42;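 note: growth inhibition of KNS-42 cells, read out with a cell viability assay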
Description: SANGER: Inhibition of human KNS-42 cell growth in a cell viability assay.

LB2241-RCC = system: LB2241-RCC;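 note: cell viability assay measuring how strongly the cultured human renal carcinoma line is prevented from growing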
Description: SANGER: Inhibition of human LB2241-RCC cell growth in a cell viability assay.

LS-123 = system: LS-123
Description: SANGER: Inhibition of human LS-123 cell growth in a cell viability assay.

L-540 = system: L-540;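 note: growth inhibition of the human L-540 cell line, read out with a viability assay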
Description: SANGER: Inhibition of human L-540 cell growth in a cell viability assay.

NCI-H1650 = system: NCI-H1650;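 note: growth inhibition of human NCI-H1650 cells measured by a cell viability assay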
Description: SANGER: Inhibition of human NCI-H1650 cell growth in a cell viability assay.

NB5 = system: NB5;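 note: growth inhibition of NB5 cells, read out as cell viability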
Description: SANGER: Inhibition of human NB5 cell growth in a cell viability assay.

TE-10 = system: TE-10;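 note: growth inhibition of TE-10 cells, measured by a cell viability assay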
Description: SANGER: Inhibition of human TE-10 cell growth in a cell viability assay.

no-11 = system: no-11;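 note: growth inhibition of human NO-11 cells, read out with a cell viability assay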
Description: SANGER: Inhibition of human no-11 cell growth in a cell viability assay.

Becker = system: Becker;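 note: growth inhibition of Becker cells, read out with a cell viability assay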
Description: SANGER: Inhibition of human Becker cell growth in a cell viability assay.

CP66-MEL = system: CP66-MEL;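 note: growth inhibition of CP66-MEL cells determined in a cell viability assay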
Description: SANGER: Inhibition of human CP66-MEL cell growth in a cell viability assay.

BT-474 = system: BT-474
Description: SANGER: Inhibition of human BT-474 cell growth in a cell viability assay.

KE-37 = system: KE-37;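 note: growth inhibition of KE-37 cells, read out with a cell viability assay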
Description: SANGER: Inhibition of human KE-37 cell growth in a cell viability assay.

BE-13 = system: BE-13;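 note: growth inhibition of human BE-13 cells, measured with a cell viability assay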
Description: SANGER: Inhibition of human BE-13 cell growth in a cell viability assay.

GI-ME-N = system: GI-ME-N;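 note: growth inhibition of human GI-ME-N cells, read out with a cell viability assay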
Description: SANGER: Inhibition of human GI-ME-N cell growth in a cell viability assay.

COLO-800 = system: COLO-800;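 note: growth inhibition of COLO-800 cells, read out with a cell viability assay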
Description: SANGER: Inhibition of human COLO-800 cell growth in a cell viability assay.

A101D = system: A101D;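 note: growth inhibition of the cell line, measured with a viability assay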
Description: SANGER: Inhibition of human A101D cell growth in a cell viability assay.

GOTO = system: GOTO;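 note: growth inhibition of GOTO cells, read out by a cell viability assay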
Description: SANGER: Inhibition of human GOTO cell growth in a cell viability assay.

IST-MES1 = system: IST-MES1;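 note: growth inhibition of IST-MES1 cells, measured with a cell viability assay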
Description: SANGER: Inhibition of human IST-MES1 cell growth in a cell viability assay.

NB10 = system: NB10;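 note: growth inhibition of NB10 cells, read out by a cell viability assay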
Description: SANGER: Inhibition of human NB10 cell growth in a cell viability assay.

KNS-81-FD = system: KNS-81-FD;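 note: growth inhibition of KNS-81-FD cells, read out with a cell viability assay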
Description: SANGER: Inhibition of human KNS-81-FD cell growth in a cell viability assay.

LB373-MEL-D = system: LB373-MEL-D;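 note: growth inhibition of the cell line, read out in a cell viability assay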
Description: SANGER: Inhibition of human LB373-MEL-D cell growth in a cell viability assay.

SF-268 = system: SF-268;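 note: growth inhibition of SF-268 cells determined with a cell viability assay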
Description: SANGER: Inhibition of human SF268 cell growth in a cell viability assay.

MEG-01 = system: MEG-01;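 note: growth inhibition of MEG-01 cells, read out by a cell viability assay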
Description: SANGER: Inhibition of human MEG-01 cell growth in a cell viability assay.

K562 = system: K562
Description: SANGER: Inhibition of human K-562 cell growth in a cell viability assay.

L-363 = system: L-363
Description: SANGER: Inhibition of human L-363 cell growth in a cell viability assay.

EM-2 = system: EM-2;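 note: growth inhibition of EM-2 cells, read out with a cell viability assay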
Description: SANGER: Inhibition of human EM-2 cell growth in a cell viability assay.

PSN1 = system: PSN1;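 note: suppression of growth of human PSN1 cells, read out by a cell viability assay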
Description: SANGER: Inhibition of human PSN1 cell growth in a cell viability assay.

EW-18 = system: EW-18;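 note: growth inhibition of EW-18 cells, read out by a cell viability assay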
Description: SANGER: Inhibition of human EW-18 cell growth in a cell viability assay.

EW-11 = system: EW-11;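 note: growth inhibition of human EW-11 cells, measured with a cell viability assay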
Description: SANGER: Inhibition of human EW-11 cell growth in a cell viability assay.

SH-4 = system: SH-4;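 note: growth inhibition of SH-4 cells, read out with a cell viability assay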
Description: SANGER: Inhibition of human SH-4 cell growth in a cell viability assay.

ES7 = system: ES7;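 note: growth inhibition of cultured human ES7 cells, read out as cell viability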
Description: SANGER: Inhibition of human ES7 cell growth in a cell viability assay.

NTERA-2-cl-D1 = system: NTERA-2-cl-D1;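 note: inhibition of cell growth, measured with a cell viability assay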
Description: SANGER: Inhibition of human NTERA-S-cl-D1 cell growth in a cell viability assay.

VA-ES-BJ = system: VA-ES-BJ;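 note: growth inhibition of the VA-ES-BJ cell line, read out by a cell viability assay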
Description: SANGER: Inhibition of human VA-ES-BJ cell growth in a cell viability assay.

SK-MEL-2 = system: SK-MEL-2;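 note: growth inhibition of human SK-MEL-2 cells measured with a cell viability assay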
Description: SANGER: Inhibition of human SK-MEL-2 cell growth in a cell viability assay.

NKM-1 = system: NKM-1;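 note: growth inhibition of NKM-1 cells, read out with a cell viability assay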
Description: SANGER: Inhibition of human NKM-1 cell growth in a cell viability assay.

CCn1c(-c2nonc2N)nc2cnc(Oc3cccc(NC(=O)c4ccc(OCCN5CCOCC5)cc4)c3)cc21 [GSK-269962A]
IC50 (SNU-5): > 2500 nM | IC50 (HL-60): > 2500 nM | IC50 (MN-60): > 2500 nM | IC50 (NCI-H1299): > 2500 nM | IC50 (RXF 393): 393 nM | IC50 (NCI-H446): > 2500 nM | IC50 (SJSA-1): 1050 nM | IC50 (COLO-320-HSR): > 2500 nM | IC50 (D-263MG): 85.1 nM | IC50 (ALL-PO): > 2500 nM | IC50 (IST-MEL1): > 2500 nM | IC50 (UACC-257): > 2500 nM | IC50 (SF-539): 1290 nM | IC50 (ML-2): > 2500 nM | IC50 (AM-38): > 2500 nM | IC50 (NCI-H322M): > 2500 nM | IC50 (KM-H2): > 2500 nM | IC50 (HT): > 2500 nM | IC50 (DU-4475): > 2500 nM | IC50 (ES4): > 2500 nM | IC50 (MMAC-SF): > 2500 nM | IC50 (GT3TKB): 1600 nM | IC50 (KNS-42): > 2500 nM | IC50 (LB2241-RCC): > 2500 nM | IC50 (LS-123): > 2500 nM | IC50 (L-540): > 2500 nM | IC50 (NCI-H1650): > 2500 nM | IC50 (NB5): > 2500 nM | IC50 (TE-10): > 2500 nM | IC50 (no-11): > 2500 nM | IC50 (Becker): > 2500 nM | IC50 (CP66-MEL): > 2500 nM | IC50 (BT-474): > 2500 nM | IC50 (KE-37): > 2500 nM | IC50 (BE-13): 141 nM | IC50 (GI-ME-N): 49.5 nM | IC50 (COLO-800): > 2500 nM | IC50 (A101D): 1870 nM | IC50 (GOTO): > 2500 nM | IC50 (IST-MES1): > 2500 nM | IC50 (NB10): 138 nM | IC50 (KNS-81-FD): > 2500 nM | IC50 (LB373-MEL-D): > 2500 nM | IC50 (SF-268): > 2500 nM | IC50 (MEG-01): > 2500 nM | IC50 (K562): > 2500 nM | IC50 (L-363): > 2500 nM | IC50 (EM-2): 2460 nM | IC50 (PSN1): > 2500 nM | IC50 (EW-18): > 2500 nM | IC50 (EW-11): > 2500 nM | IC50 (SH-4): > 2500 nM | IC50 (ES7): > 2500 nM | IC50 (NTERA-2-cl-D1): > 2500 nM | IC50 (VA-ES-BJ): > 2500 nM | IC50 (SK-MEL-2): > 2500 nM | IC50 (NKM-1): > 2500 nM

Cc1n[nH]c2ccc(-c3cncc(OC[C@@H](N)Cc4c[nH]c5ccccc45)c3)cc12 [A-443654]
IC50 (SNU-5): > 1020 nM | IC50 (HL-60): 500 nM | IC50 (MN-60): 487 nM | IC50 (RXF 393): 657 nM | IC50 (NCI-H446): 395 nM | IC50 (SJSA-1): 376 nM | IC50 (COLO-320-HSR): 937 nM | IC50 (D-263MG): > 1020 nM | IC50 (ALL-PO): 797 nM | IC50 (IST-MEL1): 447 nM | IC50 (UACC-257): > 1020 nM | IC50 (SF-539): > 1020 nM | IC50 (ML-2): 192 nM | IC50 (AM-38): > 1020 nM | IC50 (NCI-H322M): > 1020 nM | IC50 (KM-H2): > 1020 nM | IC50 (HT): 373 nM | IC50 (DU-4475): 801 nM | IC50 (ES4): 37.7 nM | IC50 (MMAC-SF): > 1020 nM | IC50 (GT3TKB): > 1020 nM | IC50 (KNS-42): 248 nM | IC50 (LB2241-RCC): > 1020 nM | IC50 (LS-123): 337 nM | IC50 (L-540): 346 nM | IC50 (NCI-H1650): > 1020 nM | IC50 (NB5): 665 nM | IC50 (TE-10): 89.4 nM | IC50 (no-11): 130 nM | IC50 (Becker): 303 nM | IC50 (CP66-MEL): 459 nM | IC50 (BT-474): 584 nM | IC50 (KE-37): 110 nM | IC50 (BE-13): 502 nM | IC50 (GI-ME-N): 278 nM | IC50 (COLO-800): > 1020 nM | IC50 (A101D): 133 nM | IC50 (GOTO): 366 nM | IC50 (IST-MES1): > 1020 nM | IC50 (NB10): > 1020 nM | IC50 (KNS-81-FD): > 1020 nM | IC50 (LB373-MEL-D): 531 nM | IC50 (SF-268): > 1020 nM | IC50 (MEG-01): 814 nM | IC50 (K562): 385 nM | IC50 (L-363): 153 nM | IC50 (EM-2): 583 nM | IC50 (PSN1): 47.3 nM | IC50 (EW-18): > 1020 nM | IC50 (EW-11): > 1020 nM | IC50 (SH-4): 185 nM | IC50 (ES7): > 1020 nM | IC50 (NTERA-2-cl-D1): 27.6 nM | IC50 (VA-ES-BJ): 129 nM | IC50 (SK-MEL-2): 833 nM | IC50 (NKM-1): > 1020 nM

Cc1ccc(NC(=O)c2cccc(C(C)(C)C#N)c2)cc1Nc1ccc2ncn(C)c(=O)c2c1
IC50 (SNU-5): 2810 nM | IC50 (HL-60): 154 nM | IC50 (MN-60): > 4000 nM | IC50 (NCI-H1299): > 4000 nM | IC50 (RXF 393): > 4000 nM | IC50 (NCI-H446): > 4000 nM | IC50 (SJSA-1): 1430 nM | IC50 (COLO-320-HSR): > 4000 nM | IC50 (D-263MG): > 4000 nM | IC50 (ALL-PO): 1350 nM | IC50 (IST-MEL1): 204 nM | IC50 (UACC-257): 27.5 nM | IC50 (SF-539): > 4000 nM | IC50 (ML-2): 369 nM | IC50 (AM-38): > 4000 nM | IC50 (NCI-H322M): > 4000 nM | IC50 (KM-H2): > 4000 nM | IC50 (HT): > 4000 nM | IC50 (DU-4475): 10.2 nM | IC50 (ES4): > 4000 nM | IC50 (MMAC-SF): 40.1 nM | IC50 (GT3TKB): > 4000 nM | IC50 (KNS-42): > 4000 nM | IC50 (LB2241-RCC): > 4000 nM | IC50 (LS-123): > 4000 nM | IC50 (L-540): 3960 nM | IC50 (NCI-H1650): > 4000 nM | IC50 (NB5): 1950 nM | IC50 (TE-10): > 4000 nM | IC50 (no-11): > 4000 nM | IC50 (Becker): > 4000 nM | IC50 (CP66-MEL): 132 nM | IC50 (BT-474): > 4000 nM | IC50 (KE-37): > 4000 nM | IC50 (BE-13): 806 nM | IC50 (GI-ME-N): 1290 nM | IC50 (COLO-800): > 4000 nM | IC50 (A101D): 5.82 nM | IC50 (GOTO): > 4000 nM | IC50 (IST-MES1): > 4000 nM | IC50 (NB10): > 4000 nM | IC50 (KNS-81-FD): > 4000 nM | IC50 (LB373-MEL-D): 1660 nM | IC50 (SF-268): > 4000 nM | IC50 (MEG-01): 376 nM | IC50 (K562): 667 nM | IC50 (L-363): > 4000 nM | IC50 (EM-2): 196 nM | IC50 (PSN1): 27.4 nM | IC50 (EW-18): > 4000 nM | IC50 (EW-11): > 4000 nM | IC50 (SH-4): < 15.6 nM | IC50 (ES7): > 4000 nM | IC50 (NTERA-2-cl-D1): > 4000 nM | IC50 (VA-ES-BJ): > 4000 nM | IC50 (SK-MEL-2): 3220 nM | IC50 (NKM-1): 735 nM
